Like-named read-outs stand apart in the source and are kept apart here.
Columns and labels:
RORγ = biological target: T1, RORγ (UniProt P51449); assay: RORγ Gal4 Reporter Gene Assay in 293T cells (firefly and renilla luciferase); assay type: cell-based, human
T1 sequence (P51449 1-518): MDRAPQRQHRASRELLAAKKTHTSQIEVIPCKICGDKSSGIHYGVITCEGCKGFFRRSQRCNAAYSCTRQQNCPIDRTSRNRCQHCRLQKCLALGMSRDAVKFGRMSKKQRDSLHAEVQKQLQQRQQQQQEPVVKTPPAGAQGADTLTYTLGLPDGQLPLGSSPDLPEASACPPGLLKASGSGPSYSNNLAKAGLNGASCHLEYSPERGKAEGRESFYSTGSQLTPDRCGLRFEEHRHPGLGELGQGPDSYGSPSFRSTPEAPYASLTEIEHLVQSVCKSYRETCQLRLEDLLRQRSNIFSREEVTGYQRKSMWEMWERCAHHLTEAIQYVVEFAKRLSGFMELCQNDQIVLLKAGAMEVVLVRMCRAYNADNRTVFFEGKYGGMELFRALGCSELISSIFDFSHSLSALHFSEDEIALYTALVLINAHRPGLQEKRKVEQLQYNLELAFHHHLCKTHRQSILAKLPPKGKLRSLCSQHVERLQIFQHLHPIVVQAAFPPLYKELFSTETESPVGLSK

[1] = biological target: T2, RORγ ligand binding domain (LBD) (Homo sapiens, UniProt P51449); assay: TR-FRET Activity Assay (ligand sensing, RORγ-LBD / coactivator peptide interaction, LANCE); assay type: biochemical
T2 construct: made in house; host or cells: E. coli BL-21 (BL3), vector pDEST15
T2 sequence (P51449 269-508 limits assumed): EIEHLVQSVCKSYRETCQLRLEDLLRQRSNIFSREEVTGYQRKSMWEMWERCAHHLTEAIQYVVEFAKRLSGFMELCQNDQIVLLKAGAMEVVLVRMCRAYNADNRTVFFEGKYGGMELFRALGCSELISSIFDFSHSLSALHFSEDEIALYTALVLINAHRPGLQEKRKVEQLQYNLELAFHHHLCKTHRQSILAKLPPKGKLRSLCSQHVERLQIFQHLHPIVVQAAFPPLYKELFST

[2] = second value of the cell, Gal4 reporter gene assay in 293T cells, firefly luciferase
[3] = third value of the cell, Gal4 reporter gene assay in 293T cells, renilla normalised luciferase
[4] = first value of the cell FRET/FF/REN, TR-FRET activity assay, read-out: pIC50 (FRET) (converted)

Compound | pIC50 (FF) (RORγ; [2]) | pIC50 (REN) (RORγ; [3]) | IC50 [1, 4] [nM] | pIC50 (FF) (RORγ) | pIC50 (REN) (RORγ) | IC50 [1] [nM]
Cc1c(C(=O)N[C@H]2C[C@H](C(=O)O)C2)cc(-c2cc(C(=O)NC(C)(C)C)cc3ccccc23)n1CC1CCCCC1 [17/189] | 6.3 | 6.3 | 5010 |  |  | 
Cc1c(C(=O)NC2CCOCC2)cc(-c2cnc(S(=O)(=O)NC(C)(C)C)c(C(F)(F)F)c2)n1CC1CCCCC1 [17/190] | 6.5 | 6.6 | 1580 |  |  | 
Cc1c(C(=O)NCC(C)(C)O)cc(-c2cc(C(C)(C)C)cc(C(C)(C)C)c2OC(F)F)n1CC1CCCCC1 [17/191] |  |  |  | 5.9/7.0/6.9 | 5.9/7.0/6.9 | 1260
Cc1cc(C(C)(C)C)cc(-c2cc(C(=O)NCC(C)(C)O)c(C)n2CC2CCCCC2)c1OC(F)F [17/192] | 6.5 | 6.4 | 1580 |  |  | 
Cc1c(C(=O)N[C@H]2C[C@H](C(=O)O)C2)cc(-c2cc(C(C)(C)C)cc(C(C)(C)C)c2OC(F)F)n1CC1CCCCC1 [17/193] | 6.9 | 7.0 | 2510 |  |  | 
Cc1cc(C(C)(C)C)cc(-c2cc(C(=O)N[C@H]3C[C@H](C(=O)O)C3)c(C)n2CC2CCCCC2)c1OC(F)F [17/194] | 6.4 | 6.5 | 12600 |  |  | 
Cc1c(C(=O)N[C@H]2C[C@H](C(=O)O)C2)cc(-c2cc(OCC(C)(C)C)nc(C(C)(C)C)c2)n1CC1CCCCC1 [17/195] | 7.6 | 7.6 | 631 |  |  | 
Cc1c(C(=O)N[C@H]2C[C@H](C(=O)O)C2)cc(-c2cc(NCC(C)(C)C)nc(C(C)(C)C)c2)n1CC1CCCCC1 [17/196] | 7.0 | 7.0 | 3980 |  |  | 
CCC(C)(C)NS(=O)(=O)c1ccc(-c2cc(C(=O)N[C@H]3C[C@H](C(=O)O)C3)c(C)n2CC2CCCCC2)c(Cl)c1C [17/197] | 7.9 | 7.7 | 794 |  |  | 
Cc1c(C(=O)N2CCOCC2)cc(-c2ccc(S(=O)(=O)NC(C)(C)C)c(C(F)(F)F)c2)n1CC1CCCCC1 [17/198] |  |  |  | 6.3/6.8/6.9 | 6.3/6.8/6.9 | 501
Cc1c(C(=O)N2CCS(=O)(=O)CC2)cc(-c2ccc(S(=O)(=O)NC(C)(C)C)c(C(F)(F)F)c2)n1CC1CCCCC1 [17/199] | 6.6 | 6.7 | 631 |  |  | 
Cc1c(C(=O)NCC(C)(C)C(=O)O)cc(-c2ccc(S(=O)(=O)NC(C)(C)C)c(C(F)(F)F)c2)n1CC1CCCCC1 [17/200] | 6.9 | 6.9 | 501 |  |  | 
Cc1c(C(=O)NCC2(C(=O)O)CCOCC2)cc(-c2ccc(S(=O)(=O)NC(C)(C)C)c(C(F)(F)F)c2)n1CC1CCCCC1 [17/201] | 5.7 | 5.7 | 794 |  |  | 
Cc1c(C(=O)NCC(C)(C)C(N)=O)cc(-c2ccc(S(=O)(=O)NC(C)(C)C)c(C(F)(F)F)c2)n1CC1CCCCC1 [17/202] | 7.7 | 7.7 | 316 |  |  | 
Cc1c(C(=O)NCC2(C(N)=O)CCOCC2)cc(-c2ccc(S(=O)(=O)NC(C)(C)C)c(C(F)(F)F)c2)n1CC1CCCCC1 [17/203] | 7.8 | 7.8 | 501 |  |  | 
CNC(=O)C(C)(C)CNC(=O)c1cc(-c2ccc(S(=O)(=O)NC(C)(C)C)c(C(F)(F)F)c2)n(CC2CCCCC2)c1C [17/204] | 6.7 | 6.8 | 794 |  |  | 
CNC(=O)C1(CNC(=O)c2cc(-c3ccc(S(=O)(=O)NC(C)(C)C)c(C(F)(F)F)c3)n(CC3CCCCC3)c2C)CCOCC1 [17/205] | 6.9 | 7.0 | 794 |  |  | 
